In patent US6914045B2, “Glycopeptide antibiotics” (Wyeth Holdings Corporation, priority 2001, dated 2005):

Assays:
Enterococcus sp. = assay: in vitro antibacterial evaluation, MIC by broth dilution; assay type: cell-based; settings: broth dilution, 18 hours at 35° C.
Summary of the method: (§1)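 Read-out: the lowest concentration at which the test strain fails to grow. Serial dilutions (64-0.06 μg/mL) in Muller-Hinton II […], 5×10^5 CFU/mL inoculum, NCCLS M7-A2 procedure.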

Escherichia coli = assay: as above; assay type: cell-based; settings: 18 hours at 35° C.
Summary of the method: as §1

Streptococcus sp. = assay: as above; assay type: cell-based; settings: broth dilution, 18 hours at 35° C.
Summary of the method: as §1

Staphylococcus sp. = assay: as above; assay type: cell-based; settings: broth dilution, 18 hours at 35° C.
Summary of the method: as §1

[1] = system: Staphylococcus aureus-SMITH (GC 4543); assay: acute lethal infection in mice; assay type: in vivo; settings: acute lethal infection, female CD-1 mice, intraperitoneal challenge, intravenous 30 min. after infection, 7 day survival
Procedure: Methods for in Vivo Antibacterial Evaluation
The therapeutic effects of glycopeptide antibiotics of Formula I are determined against acute lethal infections with S. aureus (strain Smith), a penicillin resistant strain of S. pneumoniae (strain GC 1894), and a vancomycin resistant strain of E. fecalis (strain GC 6189 and GC 2246). Female mice, CD-1 (Charles River Laboratories), 20+/−2 gm, are challenged by intraperitoneal injection of sufficient bacteria (suspended in /trypticase Soy Broth or hog gastric mucin) to kill non-treated controls within 24-48 hr. Antibacterial agents, contained in 0.2 mL of saline or 5% dextrose solution, are administered intravenously 30 min. after infection. Five mice are treated at each dose level. The 7 day survival ratios from 3 separate tests are pooled for calculation of median effective dose (ED50).

CC(c1ccccc1)C1NC(=O)CNC(=O)C(CO)NC(=O)C(C(O)C2CNC(=N)N2C2OC(CO)C(O)C(O)C2O)NC(=O)C(C(O)C2CNC(=N)N2)NC(=O)C(Cc2ccc(OC3OC(CO)C(OC4OC5COC(Cc6ccc(Cl)cc6)OC5C(O)C4O)C(O)C3O)cc2)NC1=O (stereo not drawn) [Example 120, Cyclo[glycyl-β-methylphenylalanyl-O-[4-O-[4,6-O-(4-chlorophenethylidene)hexopyranosyl]-hexopyranosyl]tyrosyl-3-(2-iminoimidazolidin-4-yl)seryl-3-(3-hexopyranosyl-2-iminoimidazolidin-4-yl)serylseryl]]
1 µg/mL: MIC Enterococcus avium (GC 4558) (Enterococcus sp.; Enterococcus avium (GC 4558)) | MIC Enterococcus faecalis (ATCC 29212) (Enterococcus sp.; Enterococcus faecalis (ATCC 29212)) | MIC Enterococcus faecalis (GC 2242) (Enterococcus sp.; Enterococcus faecalis (GC 2242)) | MIC Enterococcus faecalis (GC 2691) (Enterococcus sp.; Enterococcus faecalis (GC 2691)) | MIC Enterococcus faecalis (GC 3059) (Enterococcus sp.; Enterococcus faecalis (GC 3059)) | MIC Enterococcus faecalis (GC 4552) (Enterococcus sp.; Enterococcus faecalis (GC 4552)) | MIC Enterococcus faecalis (GC 4553) (Enterococcus sp.; Enterococcus faecalis (GC 4553)) | MIC Enterococcus faecalis (GC 4554) (Enterococcus sp.; Enterococcus faecalis (GC 4554)) | MIC Enterococcus faecalis (GC 6189) (Enterococcus sp.; Enterococcus faecalis (GC 6189)) | MIC Enterococcus faecium (GC 2243) (Enterococcus sp.; Enterococcus faecium (GC 2243)) | MIC Enterococcus faecium (GC 4556) (Enterococcus sp.; Enterococcus faecium (GC 4556)) | MIC Enterococcus faecium (GC 4557) (Enterococcus sp.; Enterococcus faecium (GC 4557)) | MIC Enterococcus faecalis (ATCC 29212) (Enterococcus sp.; strain ATCC 29212) | MIC Enterococcus faecalis (GC 2242) (Enterococcus sp.; strain GC 2242) | MIC Enterococcus faecium (GC 2243) (Enterococcus sp.; strain GC 2243) | MIC Enterococcus faecalis (GC 2691) (Enterococcus sp.; strain GC 2691) | MIC Enterococcus faecalis (GC 3059) (Enterococcus sp.; strain GC 3059) | MIC Enterococcus faecalis (GC 4552) (Enterococcus sp.; strain GC 4552) | MIC Enterococcus faecalis (GC 4553) (Enterococcus sp.; strain GC 4553) | MIC Enterococcus faecalis (GC 4554) (Enterococcus sp.; strain GC 4554) | MIC Enterococcus faecium (GC 4556) (Enterococcus sp.; strain GC 4556) | MIC Enterococcus faecium (GC 4557) (Enterococcus sp.; strain GC 4557) | MIC Enterococcus avium (GC 4558) (Enterococcus sp.; strain GC 4558) | MIC Enterococcus faecalis (GC 6189) (Enterococcus sp.; strain GC 6189) | MIC Coagulase Negative Staphylococcus (GC 4547) (Staphylococcus sp.) | MIC Staphylococcus aureus (GC 3053) (Staphylococcus sp.) | MIC Staphylococcus aureus (GC 3053) (Staphylococcus sp.; strain GC 3053) | MIC Coagulase Negative Staphylococcus (GC 4547) (Staphylococcus sp.; strain GC 4547)
0.06 mg/kg: median effective dose (ED50), Staphylococcus aureus-SMITH (GC 4543) [1]
<0.5 µg/mL: MIC Escherichia coli (GC 4560) (Escherichia coli; strain GC 4560) | MIC Streptococcus agalactiae (GC 4564) (Streptococcus sp.; Streptococcus agalactiae (GC 4564)) | MIC Streptococcus pneumoniae (ATCC 6301) (Streptococcus sp.; Streptococcus pneumoniae (ATCC 6301)) | MIC Streptococcus pneumoniae (GC 1894) (Streptococcus sp.; Streptococcus pneumoniae (GC 1894)) | MIC Streptococcus pneumoniae (GC 4565) (Streptococcus sp.; Streptococcus pneumoniae (GC 4565)) | MIC Streptococcus pyogenes (GC 4563) (Streptococcus sp.; Streptococcus pyogenes (GC 4563)) | MIC Streptococcus pneumoniae (ATCC 6301) (Streptococcus sp.; strain ATCC 6301) | MIC Streptococcus pneumoniae (GC 1894) (Streptococcus sp.; strain GC 1894) | MIC Streptococcus pyogenes (GC 4563) (Streptococcus sp.; strain GC 4563) | MIC Streptococcus agalactiae (GC 4564) (Streptococcus sp.; strain GC 4564) | MIC Streptococcus pneumoniae (GC 4565) (Streptococcus sp.; strain GC 4565) | MIC Coagulase Negative Staphylococcus (GC 4548) (Staphylococcus sp.) | MIC Coagulase Negative Staphylococcus (GC 4549) (Staphylococcus sp.) | MIC Coagulase Negative Staphylococcus (GC 4551) (Staphylococcus sp.) | MIC Coagulase Negative Staphylococcus (GC 6257) (Staphylococcus sp.) | MIC Staphylococcus aureus (ATCC 29213) (Staphylococcus sp.) | MIC Staphylococcus aureus (GC 1131) (Staphylococcus sp.) | MIC Staphylococcus aureus (GC 3051) (Staphylococcus sp.) | MIC Staphylococcus aureus (GC 4541) (Staphylococcus sp.) | MIC Staphylococcus aureus (GC 4542) (Staphylococcus sp.) | MIC Staphylococcus aureus (GC 4544) (Staphylococcus sp.) | MIC Staphylococcus aureus (GC 4545) (Staphylococcus sp.) | MIC Staphylococcus aureus-SMITH (GC 4543) (Staphylococcus sp.) | MIC Staphylococcus haemolyticus (GC 4546) (Staphylococcus sp.) | MIC Staphylococcus aureus (GC 1131) (Staphylococcus sp.; inoculum 5×10^5 CFU/mL, strain GC 1131) | MIC Staphylococcus aureus (ATCC 29213) (Staphylococcus sp.; strain ATCC 29213) | MIC Staphylococcus aureus (GC 3051) (Staphylococcus sp.; strain GC 3051) | MIC Staphylococcus aureus (GC 4541) (Staphylococcus sp.; strain GC 4541) | MIC Staphylococcus aureus (GC 4542) (Staphylococcus sp.; strain GC 4542) | MIC Staphylococcus aureus (GC 4544) (Staphylococcus sp.; strain GC 4544) | MIC Staphylococcus aureus (GC 4545) (Staphylococcus sp.; strain GC 4545) | MIC Staphylococcus haemolyticus (GC 4546) (Staphylococcus sp.; strain GC 4546) | MIC Coagulase Negative Staphylococcus (GC 4548) (Staphylococcus sp.; strain GC 4548) | MIC Coagulase Negative Staphylococcus (GC 4549) (Staphylococcus sp.; strain GC 4549) | MIC Coagulase Negative Staphylococcus (GC 4551) (Staphylococcus sp.; strain GC 4551) | MIC Coagulase Negative Staphylococcus (GC 6257) (Staphylococcus sp.; strain GC 6257) | MIC Staphylococcus aureus-SMITH (GC 4543) (Staphylococcus sp.; strain SMITH GC 4543)
16 µg/mL: MIC Escherichia coli (ATCC 25922) (Escherichia coli; strain ATCC 25922) | MIC Escherichia coli (GC 4559) (Escherichia coli; strain GC 4559)
